Test results published in patent publication US8975398B2, “NAMPT inhibitors” (AbbVie Inc., priority 2012, dated 2015).

What was measured:
[1] = molecular target: NAMPT (human, recombinant, C-terminally His-tagged) (Homo sapiens, UniProt P43490); assay: Time-Resolved Fluorescence Resonance Energy Transfer (TR-FRET) Binding Assay of NAMPT; conditions: 6.8 nM NAMPT, 200 nM probe, equilibrated 3 hours, absence of substrates
Protocol: Determination of the utility of compounds having Formula (I) as binders to and inhibitors of NAMPT was performed using Time-Resolved Fluorescence Resonance Energy Transfer (TR-FRET) binding assays.
Time-Resolved Fluorescence Resonance Energy Transfer (TR-FRET) Binding Assay of NAMPT
Test compounds were serially diluted (typically 11 half log dilutions) in neat DMSO to 50× final concentrations prior to dilution with assay buffer (50 mM HEPES (NaOH), pH 7.5, 100 mM NaCl, 10 mM MgCl2, 1 mM DTT, 1% Glycerol) to 3× and 6% DMSO. Six μL were transferred to 384-well low-volume plates (Owens Corning #3673). To this, 12 μL of a 1.5× solution containing enzyme, probe and antibody were added. Final concentrations in the 18 μL, reactions were 1× assay buffer, 2% DMSO, 6.8 nM NAMPT (human, recombinant, C-terminally His-tagged), 200 nM probe (a potent nicotinamide-competitive inhibitor conjugated to Oregon Green 488) and 1 nM Tb-anti-His antibody (Invitrogen #PV5895). Reactions were equilibrated at room temperature for 3 hours prior to reading on an Envision multi-label plate reader (Perkin Elmer; Ex=337 nm, Em=520 and 495 nm). Time-resolved FRET ratios (Em520/Em495) were normalized to controls, plotted as a function of compound concentration and fit with the four-parameter logistic equation to determine IC50s.

NAMPT = NAMPT (Homo sapiens, UniProt P43490); assay: Time-Resolved Fluorescence Resonance Energy Transfer (TR-FRET) Binding Assay of NAMPT with PRPP; conditions: 2 nM NAMPT, 2 nM probe, 200 uM PRPP and 2.5 mM ATP, equilibrated 16 hours
Protocol: Time-Resolved Fluorescence Resonance Energy Transfer (TR-FRET) Binding Assay of NAMPT with PRPP
Compound handling and data processing were identical to the assay in the absence of substrates (above). Final concentrations were 1× assay buffer, 2% DMSO, 2 nM NAMPT, 2 nM probe, 1 nM Tb-anti-His antibody (Invitrogen #PV5895), 200 uM PRPP and 2.5 mM ATP. Reactions were equilibrated for 16 hours prior to measurement to allow for potential enzymatic modification of test compounds.

Sequence of NAMPT (P43490 whole entry): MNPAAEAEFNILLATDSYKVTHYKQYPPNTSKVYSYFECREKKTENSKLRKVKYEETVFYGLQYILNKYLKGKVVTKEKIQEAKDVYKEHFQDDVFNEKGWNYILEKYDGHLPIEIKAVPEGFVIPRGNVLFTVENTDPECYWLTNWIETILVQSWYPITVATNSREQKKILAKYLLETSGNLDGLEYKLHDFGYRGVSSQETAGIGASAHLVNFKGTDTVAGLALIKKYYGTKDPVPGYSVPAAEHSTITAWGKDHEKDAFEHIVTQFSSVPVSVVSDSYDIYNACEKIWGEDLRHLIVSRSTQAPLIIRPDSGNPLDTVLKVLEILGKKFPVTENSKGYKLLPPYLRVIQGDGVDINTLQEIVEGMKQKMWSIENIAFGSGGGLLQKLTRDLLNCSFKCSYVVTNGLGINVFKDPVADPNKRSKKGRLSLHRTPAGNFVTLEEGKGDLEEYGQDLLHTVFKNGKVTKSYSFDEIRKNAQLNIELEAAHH
Sequence of NAMPT (human, recombinant, C-terminally His-tagged) (P43490 whole entry): as above

Row | Compound | IC50 [1] [nM] | IC50 (NAMPT) [nM]
1 | O=C(Nc1ccc(C2CCN(C(=O)CC3CCOCC3)CC2)cc1)[C@H]1CCN(c2cccnn2)C1 [Example 312, (3S)-1-(pyridazin-3-yl)-N-{4-[1-(tetrahydro-2H-pyran-4-ylacetyl)piperidin-4-yl]phenyl}pyrrolidine-3-carboxamide] | 1130 | 8.94
2 | O=C(Nc1ccc(C2CCN(C(=O)C3CCCCC3)CC2)cc1)C1CN(c2cccnn2)C1 [Example 339, N-{4-[1-(cyclohexylcarbonyl)piperidin-4-yl]phenyl}-1-(pyridazin-3-yl)azetidine-3-carboxamide] | 17.9 | 0.663
3 | O=C(Nc1ccc(C2CCN(C(=O)CN3CCOCC3)CC2)cc1)C1CN(c2cccnc2)C1 [Example 103, N-{4-[1-(morpholin-4-ylacetyl)piperidin-4-yl]phenyl}-1-(pyridin-3-yl)azetidine-3-carboxamide] | 56.2 | 0.493
4 | CC(C)(C)C(=O)N1CCC(Oc2ccc(NC(=O)C3CN(c4cccnc4)C3)cc2)CC1 [Example 42, N-(4-{[1-(2,2-dimethylpropanoyl)piperidin-4-yl]oxy}phenyl)-1-(pyridin-3-yl)azetidine-3-carboxamide] | 226 | 2.39
5 | CN(C)CCC(=O)N1CCC(c2ccc(NC(=O)C3CN(c4cccnc4)C3)cc2)CC1 [Example 107, N-{4-[1-(N,N-dimethyl-beta-alanyl)piperidin-4-yl]phenyl}-1-(pyridin-3-yl)azetidine-3-carboxamide] | 163 | 0.169
6 | Cc1ncccc1N1CC(C(=O)Nc2ccc(C3CCN(C(=O)c4cccs4)CC3)cc2)C1 [Example 187, 1-(2-methylpyridin-3-yl)-N-{4-[1-(thiophen-2-ylcarbonyl)piperidin-4-yl]phenyl}azetidine-3-carboxamide] | 10.2 | 27.3
7 | CC(C)(C)C(=O)N1CCC(Oc2ccc(NC(=O)C3CN(c4ccnnc4)C3)cc2)CC1 [Example 280, N-(4-{[1-(2,2-dimethylpropanoyl)piperidin-4-yl]oxy}phenyl)-1-(pyridazin-4-yl)azetidine-3-carboxamide] | 123 | 51.9
8 | CCCC(=O)N1CCC(Oc2ccc(NC(=O)C3CN(c4cccnc4)C3)cc2)CC1 [Example 43, N-{4-[(1-butanoylpiperidin-4-yl)oxy]phenyl}-1-(pyridin-3-yl)azetidine-3-carboxamide] | 86.5 | 0.803
9 | O=C(Nc1ccc(C2CCN(C(=O)C3CCOCC3)CC2)cc1)C1CN(c2ccnnc2)C1 [Example 146, 1-(pyridazin-4-yl)-N-{4-[1-(tetrahydro-2H-pyran-4-ylcarbonyl)piperidin-4-yl]phenyl}azetidine-3-carboxamide] | 65.9 | 109
10 | O=C(Nc1ccc(OC2CCN(C(=O)c3ccc(F)cc3)CC2)cc1)C1CN(c2cccnn2)C1 [Example 230, N-(4-{[1-(4-fluorobenzoyl)piperidin-4-yl]oxy}phenyl)-1-(pyridazin-3-yl)azetidine-3-carboxamide] | 158 | 0.843
11 | Cn1cccc1C(=O)N1CCC(Oc2ccc(NC(=O)C3CN(c4cccnc4)C3)cc2)CC1 [Example 64, N-[4-({1-[(1-methyl-1H-pyrrol-2-yl)carbonyl]piperidin-4-yl}oxy)phenyl]-1-(pyridin-3-yl)azetidine-3-carboxamide] | 55.2 | 0.927
12 | O=C(Nc1ccc(OC2CCN(C(=O)c3cccs3)CC2)cc1)C1CN(c2ccnnc2)C1 [Example 303, 1-(pyridazin-4-yl)-N-(4-{[1-(thiophen-2-ylcarbonyl)piperidin-4-yl]oxy}phenyl)azetidine-3-carboxamide] | 30.9 | 15.5
13 | O=C(Nc1ccc(OC2CCN(C(=O)c3ccccc3F)CC2)cc1)C1CN(c2cccnn2)C1 [Example 228, N-(4-{[1-(2-fluorobenzoyl)piperidin-4-yl]oxy}phenyl)-1-(pyridazin-3-yl)azetidine-3-carboxamide] | 54.6 | 0.911
14 | O=C(Nc1ccc(OC2CCN(C(=O)c3cccc(F)c3)CC2)cc1)C1CN(c2cccnn2)C1 [Example 231, N-(4-{[1-(3-fluorobenzoyl)piperidin-4-yl]oxy}phenyl)-1-(pyridazin-3-yl)azetidine-3-carboxamide] | 174 | 0.831
15 | Cc1ncccc1N1CC(C(=O)Nc2ccc(C3CCN(C(=O)CC4CCCC4)CC3)cc2)C1 [Example 162, N-{4-[1-(cyclopentylacetyl)piperidin-4-yl]phenyl}-1-(2-methylpyridin-3-yl)azetidine-3-carboxamide] | 144 | 71
16 | Cc1ncccc1N1CC(C(=O)Nc2ccc(C3CCN(C(=O)CCN(C)C)CC3)cc2)C1 [Example 168, N-{4-[1-(N,N-dimethyl-beta-alanyl)piperidin-4-yl]phenyl}-1-(2-methylpyridin-3-yl)azetidine-3-carboxamide] | 2940 | 171
17 | CC(C)(C)C(=O)N1CCC(Oc2ccc(NC(=O)C3CN(c4cccnn4)C3)cc2)CC1 [Example 241, N-(4-{[1-(2,2-dimethylpropanoyl)piperidin-4-yl]oxy}phenyl)-1-(pyridazin-3-yl)azetidine-3-carboxamide] | 131 | 0.811
18 | Cc1ccncc1N1CC(C(=O)Nc2ccc(OC3CCN(C(=O)CC4CCOCC4)CC3)cc2)C1 [Example 5, 1-(4-methylpyridin-3-yl)-N-(4-{[1-(tetrahydro-2H-pyran-4-ylacetyl)piperidin-4-yl]oxy}phenyl)azetidine-3-carboxamide] | 107 | 10.2
19 | O=C(Nc1ccc(C2CCN(C(=O)CC3CCCC3)CC2)cc1)[C@H]1CCN(c2ccnnc2)C1 [Example 142, (3S)—N-{4-[1-(cyclopentylacetyl)piperidin-4-yl]phenyl}-1-(pyridazin-4-yl)pyrrolidine-3-carboxamide] | 1560 | 32.8
20 | Cc1ncccc1N1CC(C(=O)Nc2ccc(C3CCN(C(=O)c4ccc(F)cc4)CC3)cc2)C1 [Example 155, N-{4-[1-(4-fluorobenzoyl)piperidin-4-yl]phenyl}-1-(2-methylpyridin-3-yl)azetidine-3-carboxamide] | 294 | 44
21 | CN(C)CCC(=O)N1CCC(Oc2ccc(NC(=O)C3CN(c4cccnc4)C3)cc2)CC1 [Example 67, N-(4-{[1-(N,N-dimethyl-beta-alanyl)piperidin-4-yl]oxy}phenyl)-1-(pyridin-3-yl)azetidine-3-carboxamide] | 452 | 0.497
22 | Cc1ccsc1C(=O)N1CCC(c2ccc(NC(=O)C3CN(c4cccnc4)C3)cc2)CC1 [Example 111, N-(4-{1-[(3-methylthiophen-2-yl)carbonyl]piperidin-4-yl}phenyl)-1-(pyridin-3-yl)azetidine-3-carboxamide] | 2.84 | 0.199
23 | O=C(Nc1ccc(OC2CCN(C(=O)Cc3ccccc3F)CC2)cc1)C1CN(c2cccnn2)C1 [Example 247, N-[4-({1-[(2-fluorophenyl)acetyl]piperidin-4-yl}oxy)phenyl]-1-(pyridazin-3-yl)azetidine-3-carboxamide] | 86 | 1.02
24 | O=C(Nc1ccc(OC2CN(C(=O)CC3CCOCC3)C2)cc1)C1CN(c2ccnnc2)C1 [Example 256, 1-(pyridazin-4-yl)-N-(4-{[1-(tetrahydro-2H-pyran-4-ylacetyl)azetidin-3-yl]oxy}phenyl)azetidine-3-carboxamide] | 91.1 | 38.4
